Test results taken from ChEMBL document CHEMBL3769406, “A phenotypic drug discovery study on thienodiazepine derivatives as inhibitors of T cell proliferation induced by CD28 co-stimulation leads to the discovery of a first bromodomain inhibitor” (Bioorg Med Chem Lett, 2016).
Calls of active or inactive are those of the source. No cut-off for these calls is given here.

Columns and labels:
[1] = Immunosuppressive activity in BALB/c mouse splenic T cells assessed as inhibition of PMA/CD28 induced cell proliferation after 24 hrs by [methyl-3H]thymidine incorporation assay; type: functional, cell-based
[2] = target: Bromodomain-containing protein 2 (Homo sapiens) (UniProt P25440); assay: (§1) Competitive inhibition of BRD2 in PMA /ionomycin activated human Jurkat cell lysate in presence of (S)-4-{3'-Cyano-4'-[3-(3-{2-[5-((3aR,6S,6aS)-2-oxo-hexahydro-thieno[3,4-d]imidazol-6-yl)-pentanoylamino]-ethyldisulfanyl}-propionylamino)-propoxy]-biphenyl-4-yl}-2,3,9-trimethyl-6H-1-thia-5,7,8,9a-tetraaza-cyclopenta[e]azulene-6-yl]acetic acid ethyl ester/avidin-resin by pull down assay; type: cell-based
Bromodomain-containing protein 2 (Homo sapiens), sequence (P25440 whole entry, looked up): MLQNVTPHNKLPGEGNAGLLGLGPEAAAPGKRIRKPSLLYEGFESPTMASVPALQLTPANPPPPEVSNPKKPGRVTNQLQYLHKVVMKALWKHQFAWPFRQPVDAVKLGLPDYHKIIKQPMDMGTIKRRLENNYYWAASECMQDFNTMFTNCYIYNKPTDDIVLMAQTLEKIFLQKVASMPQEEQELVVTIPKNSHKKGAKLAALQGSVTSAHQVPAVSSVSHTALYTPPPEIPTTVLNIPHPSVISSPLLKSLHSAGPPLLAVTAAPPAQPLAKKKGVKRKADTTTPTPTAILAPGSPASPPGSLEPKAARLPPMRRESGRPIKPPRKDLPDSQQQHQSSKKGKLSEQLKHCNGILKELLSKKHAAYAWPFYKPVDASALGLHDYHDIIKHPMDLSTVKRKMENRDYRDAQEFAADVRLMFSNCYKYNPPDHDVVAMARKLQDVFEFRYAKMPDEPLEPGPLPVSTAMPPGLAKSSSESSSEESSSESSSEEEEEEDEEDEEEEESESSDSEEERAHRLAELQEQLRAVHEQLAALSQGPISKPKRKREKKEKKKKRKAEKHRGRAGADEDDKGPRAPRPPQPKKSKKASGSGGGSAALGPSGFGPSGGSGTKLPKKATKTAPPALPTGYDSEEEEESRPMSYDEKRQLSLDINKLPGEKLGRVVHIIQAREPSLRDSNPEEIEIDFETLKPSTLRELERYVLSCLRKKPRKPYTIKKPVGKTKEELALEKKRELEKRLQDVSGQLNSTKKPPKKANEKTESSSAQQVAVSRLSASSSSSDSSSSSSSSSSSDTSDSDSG

[3] = target: Bromodomain-containing protein 3 (Homo sapiens) (UniProt Q15059); assay: as §1, with “BRD3” for “BRD2”; type: cell-based
Bromodomain-containing protein 3 (Homo sapiens), sequence (Q15059 2-726 limits assumed): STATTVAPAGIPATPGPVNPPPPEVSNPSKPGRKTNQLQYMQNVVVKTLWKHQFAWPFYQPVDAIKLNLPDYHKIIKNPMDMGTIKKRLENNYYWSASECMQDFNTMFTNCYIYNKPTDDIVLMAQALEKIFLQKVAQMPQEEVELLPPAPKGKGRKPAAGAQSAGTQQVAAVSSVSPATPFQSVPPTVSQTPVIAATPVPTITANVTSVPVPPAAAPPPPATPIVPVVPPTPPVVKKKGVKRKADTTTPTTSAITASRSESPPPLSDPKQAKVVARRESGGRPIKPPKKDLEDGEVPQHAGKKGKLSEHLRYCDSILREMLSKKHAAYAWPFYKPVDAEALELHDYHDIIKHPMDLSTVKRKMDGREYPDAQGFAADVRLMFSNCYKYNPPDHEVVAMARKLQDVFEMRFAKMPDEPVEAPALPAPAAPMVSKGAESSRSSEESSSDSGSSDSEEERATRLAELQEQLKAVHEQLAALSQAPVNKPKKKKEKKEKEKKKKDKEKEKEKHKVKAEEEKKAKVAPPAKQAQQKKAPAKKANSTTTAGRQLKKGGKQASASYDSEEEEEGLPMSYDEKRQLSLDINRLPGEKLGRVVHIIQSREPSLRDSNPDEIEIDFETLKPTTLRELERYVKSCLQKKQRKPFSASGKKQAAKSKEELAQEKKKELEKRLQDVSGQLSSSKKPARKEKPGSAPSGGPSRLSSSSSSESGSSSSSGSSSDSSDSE

[4] = target: T1, Bromodomain-containing protein 4 (Homo sapiens, UniProt O60885); assay: as §1, with “BRD4” for “BRD2”; type: cell-based
[5] = Cytotoxicity against mouse M1 cells after 72 hrs by WST-8 assay; type: functional; settings: M1, 72 h
[6] = Cytotoxicity against human HL60 cells after 72 hrs by WST-8 assay; type: functional; settings: HL-60, 72 h
A2780 = assay: Cytotoxicity against human A2780 cells after 72 hrs by WST-8 assay; type: functional; settings: A2780, 72 h
[7] = Cytotoxicity against human SKOV3 cells after 72 hrs by WST-8 assay; type: functional; settings: SK-OV-3, 72 h
Mus musculus = assay: Immunosuppressive activity in collagen-induced DBA/1J mouse arthritis model at 0.3 to 1 mg/kg, po administered for […] of immunization with bovine type II collagen measured at 21 to 42 days after primary immunization; type: functional, organism-based
[8] = target: T1, Bromodomain-containing protein 4; assay: Inhibition of Flag-tagged BRD4 (unknown origin)-biotinylated AcH4 (Lys5, 8, 12, 16) histone peptide binding expressed in CHO cells after 60 mins by TR-FRET assay; type: cell-based
[9] = target: Bromodomain-containing protein 3 (Homo sapiens) (UniProt Q15059); assay: Inhibition of Flag-tagged BRD3 (unknown origin)-biotinylated AcH4 (Lys5, 8, 12, 16) histone peptide binding expressed in CHO cells after 60 mins by TR-FRET assay; type: cell-based
[10] = target: Bromodomain-containing protein 2 (Homo sapiens) (UniProt P25440); assay: Inhibition of Flag-tagged BRD2 (unknown origin)-biotinylated AcH4 (Lys5, 8, 12, 16) histone peptide binding expressed in CHO cells after 60 mins by TR-FRET assay; type: cell-based
[11] = Cytotoxicity against human MV411 cells after 72 hrs by WST-8 assay; type: functional; settings: MV4-11, 72 h
Daudi = assay: Cytotoxicity against human Daudi cells after 72 hrs by WST-8 assay; type: functional
[12] = Cytotoxicity against human U937 cells after 72 hrs by WST-8 assay; type: functional; settings: U-937, 72 h
[13] = Cytotoxicity against human RPMI8226 cells after 72 hrs by WST-8 assay; type: functional; settings: RPMI-8226, 72 h
B16 = assay: Cytotoxicity against mouse B16 cells after 72 hrs by WST-8 assay; type: functional; settings: B16, 72 h
[14] = Cytotoxicity against human KIM1 cells after 72 hrs by WST-8 assay; type: functional; settings: KIM1, 72 h
LNCaP = assay: Cytotoxicity against human LNCAP cells after 72 hrs by WST-8 assay; type: functional
[15] = Cytotoxicity against human EBC1 cells after 72 hrs by WST-8 assay; type: functional; settings: EBC-1, 72 h
A549 = assay: Cytotoxicity against human A549 cells after 72 hrs by WST-8 assay; type: functional; settings: A549, 72 h
[16] = Cytotoxicity against human LN18 cells after 72 hrs by WST-8 assay; type: functional; settings: LN-18, 72 h
[17] = Cytotoxicity against human U87MG cells after 72 hrs by WST-8 assay; type: functional, U-87MG ATCC; settings: U-87 MG
HeLa = assay: Cytotoxicity against human HeLa cells after 72 hrs by WST-8 assay; type: functional
[18] = Cytotoxicity against human COLO205 cells after 72 hrs by WST-8 assay; type: functional; settings: COLO 205, 72 h
[19] = Cytotoxicity against mouse LLC cells after 72 hrs by WST-8 assay; type: functional; settings: Lewis lung carcinoma
[20] = Antitumor activity against human HL60 cells xenografted in nude mouse assessed as inhibition of relative tumor growth at 10 mg/kg, po qd administered for 14 days; type: functional; settings: HL-60, po, 336 h, read-out: TGI
[21] = Antitumor activity against human HL60 cells xenografted in nude mouse assessed as inhibition of relative tumor growth at 30 mg/kg, po qd administered for 14 days; type: functional; settings: HL-60, po, 336 h, read-out: TGI
[22] = Antitumor activity against human HL60 cells xenografted in nude mouse assessed as inhibition of relative tumor growth at 10 mg/kg, po bid administered for 14 days; type: functional; settings: HL-60, po, 336 h, read-out: TGI

CCOC(=O)C[C@@H]1N=C(c2ccc(Cl)cc2)c2c(sc(C)c2C)-n2c(C)nnc21
IC50 [1]: 0.012 µM

COC(=O)C[C@@H]1N=C(c2ccc(-c3cccc(OC(F)(F)F)c3)cc2)c2c(sc(C)c2C)-n2c(C)nnc21
IC50 [1]: 0.16 µM

COC(=O)C[C@@H]1N=C(c2ccc(-c3cccc(O)c3)cc2)c2c(sc(C)c2C)-n2c(C)nnc21
IC50 [1]: 0.032 µM

COC(=O)C[C@H]1N=C(c2ccc(Cl)cc2)c2c(sc(C)c2C)-n2c(C)nnc21
IC50 [1]: > 10 µM

CCC1N=C(c2ccc(Cl)cc2)c2c(sc(C)c2C)-n2c(C)nnc21 (racemic)
IC50 [1]: 0.34 µM

Cc1sc2c(c1C)C(c1ccc(Cl)cc1)=N[C@@H](CC(=O)OC(C)C)c1nnc(C)n1-2
IC50 [1]: 0.044 µM

COCC[C@@H]1N=C(c2ccc(Cl)cc2)c2c(sc(C)c2C)-n2c(C)nnc21
IC50 [1]: 0.39 µM

COC(=O)C[C@@H]1N=C(c2ccc(-c3ccc(OC)cc3)cc2)c2c(sc(C)c2C)-n2c(C)nnc21
IC50 [1]: 0.053 µM

Cc1sc2c(c1C)C(c1ccc(Cl)cc1)=NC(Cc1ccccn1)c1nnc(C)n1-2 (racemic)
IC50 [1]: 0.33 µM

COC(=O)C[C@@H]1N=C(c2ccc(-c3cccc(C(C)=O)c3)cc2)c2c(sc(C)c2C)-n2c(C)nnc21
IC50 [1]: 0.015 µM

Cc1sc2c(c1C)C(c1ccc(Cl)cc1)=NC(Cc1ccncc1)c1nnc(C)n1-2 (racemic)
IC50 [1]: 0.24 µM

COC(=O)C[C@@H]1N=C(c2ccc(-c3ccccc3C#N)cc2)c2c(sc(C)c2C)-n2c(C)nnc21
IC50 [1]: 0.18 µM

COC(=O)C[C@@H]1N=C(c2ccc(-c3cccc(S(C)(=O)=O)c3)cc2)c2c(sc(C)c2C)-n2c(C)nnc21
IC50 [1]: 0.0098 µM

COC(=O)C[C@@H]1N=C(c2ccc(Cl)cc2)c2c(sc(C)c2C)-n2c(C)nnc21
IC50 [1]: 0.038 µM

Cc1sc2c(c1C)C(c1ccc(Cl)cc1)=NC(Cc1ccccc1)c1nnc(C)n1-2 (racemic)
IC50 [1]: 0.5 µM

CCCOC(=O)C[C@@H]1N=C(c2ccc(Cl)cc2)c2c(sc(C)c2C)-n2c(C)nnc21
IC50 [1]: 0.03 µM

COC(=O)C[C@H]1N=C(c2ccc(-c3cccc(C#N)c3)cc2)c2c(sc(C)c2C)-n2c(C)nnc21
inhibition [2]: inactive
inhibition [3]: inactive
inhibition [4]: inactive

COC(=O)CC1N=C(c2ccc(-c3ccccc3)cc2)c2c(sc(C)c2C)-n2c(C)nnc21 (racemic)
IC50 [1]: 0.22 µM

Cc1sc2c(c1C)C(c1ccc(Cl)cc1)=NC(CCc1ccccc1)c1nnc(C)n1-2 (racemic)
IC50 [1]: 2.68 µM

Cc1sc2c(c1C)C(c1ccc(Cl)cc1)=N[C@@H](CCO)c1nnc(C)n1-2
IC50 [1]: 0.58 µM

COC(=O)C[C@@H]1N=C(c2ccc(-c3cccc(C#N)c3)cc2)c2c(sc(C)c2C)-n2c(C)nnc21
GI50 [5]: 0.003 µM
GI50 [6]: 0.007 µM
GI50 (A2780): 0.13 µM
GI50 [7]: 5.27 µM
IC50 [1]: 0.026 µM
Activity (Mus musculus): Active
inhibition [2]: Dose-dependent effect
inhibition [3]: Dose-dependent effect
inhibition [4]: Dose-dependent effect
IC50 [8]: 0.0339 µM
inhibition [9]: Active
inhibition [10]: Active
GI50 [11]: 0.019 µM
GI50 (Daudi): 0.067 µM
GI50 [12]: 0.829 µM
GI50 [13]: 0.069 µM
GI50 (B16): 0.08 µM
GI50 [14]: 0.104 µM
GI50 (LNCaP): 0.201 µM
GI50 [15]: 0.207 µM
GI50 (A549): > 10 µM
GI50 [16]: 0.207 µM
GI50 [17]: > 10 µM
GI50 (HeLa): 0.274 µM
GI50 [18]: 0.484 µM
GI50 [19]: 1.5 µM
inhibition in vivo at 10 mg/kg [20]: 43%
inhibition in vivo at 30 mg/kg [21]: 65%
inhibition in vivo at 10 mg/kg [22]: 80%

COC(=O)C[C@@H]1N=C(c2ccc(-c3ccccc3OC)cc2)c2c(sc(C)c2C)-n2c(C)nnc21
IC50 [1]: 0.19 µM

Cc1sc2c(c1C)C(c1ccc(Cl)cc1)=NC(C)c1nnc(C)n1-2 (racemic)
IC50 [1]: 0.39 µM

Cc1sc2c(c1C)C(c1ccc(Cl)cc1)=N[C@@H](CC(=O)OC(C)(C)C)c1nnc(C)n1-2
IC50 [1]: 0.11 µM

COC(=O)C[C@@H]1N=C(c2ccc(-c3ccc(O)c(C#N)c3)cc2)c2c(sc(C)c2C)-n2c(C)nnc21
IC50 [1]: 0.0025 µM

COC(=O)C[C@@H]1N=C(c2ccc(-c3cccc(NC(C)=O)c3)cc2)c2c(sc(C)c2C)-n2c(C)nnc21
IC50 [1]: 0.027 µM

Cc1sc2c(c1C)C(c1ccc(Cl)cc1)=N[C@@H](CCC#N)c1nnc(C)n1-2
IC50 [1]: 0.1 µM

Cc1sc2c(c1C)C(c1ccc(Cl)cc1)=NCc1nnc(C)n1-2
IC50 [1]: 2.5 µM

Cc1sc2c(c1C)C(c1ccc(Cl)cc1)=N[C@@H](CC(=O)OCc1ccccc1)c1nnc(C)n1-2
IC50 [1]: 0.036 µM

COC(=O)C[C@@H]1N=C(c2ccc(-c3ccc(C#N)cc3)cc2)c2c(sc(C)c2C)-n2c(C)nnc21
IC50 [1]: 0.033 µM

COC(=O)C[C@@H]1N=C(c2ccc(-c3cccc(OC)c3)cc2)c2c(sc(C)c2C)-n2c(C)nnc21
IC50 [1]: 0.036 µM

Cc1sc2c(c1C)C(c1ccc(Cl)cc1)=NC(Cc1cccnc1)c1nnc(C)n1-2 (racemic)
IC50 [1]: 0.4 µM
